This passage reports remaining binding results from publication PMC7486443, “Generation of Phenothiazine with Potent Anti-TLK1 Activity for Prostate Cancer Therapy” (iScience, 2020).

Each structure is given as a SMILES string.

What all share (assay): biochemical
Common to all, as to set-up: DiscoverX KINOMEscan scanMAX competition binding panel, single concentration, percent of control; remaining binding: dose or concentration left out as unconfirmed
Conditions in all cases: KINOMEscan binding, percent of control; read-out: Table S4_SCANMAX REPORT - related to Fig. 1 / Percent Control

The target of test [1] is DMPK (Homo sapiens, UniProt Q09013).
Test [2] concerns the target T1, RPS6KA4(Kin.Dom.2-C-terminal) (Homo sapiens, UniProt O75676).
T1 construct: Kin.Dom.2-C-terminal

Test [3] deals with AXL (Homo sapiens, UniProt P30530).
The target in test [4] is LIMK2 (Homo sapiens, UniProt P53671).
Test [5] has as its target SGK3 (Homo sapiens, UniProt Q96BR1).
Test [6] deals with T2, SGK (Homo sapiens, UniProt O00141).
T2 construct: gene SGK1

Test [7] deals with T3, PFTK1 (Homo sapiens, UniProt O94921).
T3 construct: gene CDK14

For test [8], the target named is T4, LZK (Homo sapiens, UniProt O43283).
T4 construct: gene MAP3K13

For test [9], the target named is T5, YANK1 (Homo sapiens, UniProt Q8WU08).
T5 construct: gene STK32A

For test [10], the target named is PRKD3 (Homo sapiens, UniProt O94806).
Test [11] concerns the target PRKCE (Homo sapiens, UniProt Q02156).
Test [12] concerns the target EPHA3 (Homo sapiens, UniProt P29320).
For test [13], the target named is ULK1 (Homo sapiens, UniProt O75385).
The target of test [14] is T6, ERK1 (Homo sapiens, UniProt P27361).
T6 construct: gene MAPK3

Test [15] addresses T7, MST1 (Homo sapiens, UniProt Q13043).
T7 construct: gene STK4

Test [16] has as its target MAP3K4 (Homo sapiens, UniProt Q9Y6R4).
Test [17] deals with PHKG2 (Homo sapiens, UniProt P15735).
Test [18] has as its target T8, SgK110 (Homo sapiens, UniProt P0C264).
T8 construct: gene SBK3

In test [19] the target is TSSK1B (Homo sapiens, UniProt Q9BXA7).
TSSK1B, sequence (Q9BXA7 whole entry): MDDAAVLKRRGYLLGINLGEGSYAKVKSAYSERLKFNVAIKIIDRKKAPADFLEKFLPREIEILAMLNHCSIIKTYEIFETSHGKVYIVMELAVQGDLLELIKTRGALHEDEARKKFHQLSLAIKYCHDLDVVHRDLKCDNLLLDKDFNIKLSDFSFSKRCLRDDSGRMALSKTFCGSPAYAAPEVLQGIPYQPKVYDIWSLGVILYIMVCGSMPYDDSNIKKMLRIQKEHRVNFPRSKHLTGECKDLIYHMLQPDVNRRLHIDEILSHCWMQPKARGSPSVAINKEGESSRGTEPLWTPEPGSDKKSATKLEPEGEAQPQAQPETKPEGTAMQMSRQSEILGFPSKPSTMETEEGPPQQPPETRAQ

ULK1, sequence (O75385 whole entry): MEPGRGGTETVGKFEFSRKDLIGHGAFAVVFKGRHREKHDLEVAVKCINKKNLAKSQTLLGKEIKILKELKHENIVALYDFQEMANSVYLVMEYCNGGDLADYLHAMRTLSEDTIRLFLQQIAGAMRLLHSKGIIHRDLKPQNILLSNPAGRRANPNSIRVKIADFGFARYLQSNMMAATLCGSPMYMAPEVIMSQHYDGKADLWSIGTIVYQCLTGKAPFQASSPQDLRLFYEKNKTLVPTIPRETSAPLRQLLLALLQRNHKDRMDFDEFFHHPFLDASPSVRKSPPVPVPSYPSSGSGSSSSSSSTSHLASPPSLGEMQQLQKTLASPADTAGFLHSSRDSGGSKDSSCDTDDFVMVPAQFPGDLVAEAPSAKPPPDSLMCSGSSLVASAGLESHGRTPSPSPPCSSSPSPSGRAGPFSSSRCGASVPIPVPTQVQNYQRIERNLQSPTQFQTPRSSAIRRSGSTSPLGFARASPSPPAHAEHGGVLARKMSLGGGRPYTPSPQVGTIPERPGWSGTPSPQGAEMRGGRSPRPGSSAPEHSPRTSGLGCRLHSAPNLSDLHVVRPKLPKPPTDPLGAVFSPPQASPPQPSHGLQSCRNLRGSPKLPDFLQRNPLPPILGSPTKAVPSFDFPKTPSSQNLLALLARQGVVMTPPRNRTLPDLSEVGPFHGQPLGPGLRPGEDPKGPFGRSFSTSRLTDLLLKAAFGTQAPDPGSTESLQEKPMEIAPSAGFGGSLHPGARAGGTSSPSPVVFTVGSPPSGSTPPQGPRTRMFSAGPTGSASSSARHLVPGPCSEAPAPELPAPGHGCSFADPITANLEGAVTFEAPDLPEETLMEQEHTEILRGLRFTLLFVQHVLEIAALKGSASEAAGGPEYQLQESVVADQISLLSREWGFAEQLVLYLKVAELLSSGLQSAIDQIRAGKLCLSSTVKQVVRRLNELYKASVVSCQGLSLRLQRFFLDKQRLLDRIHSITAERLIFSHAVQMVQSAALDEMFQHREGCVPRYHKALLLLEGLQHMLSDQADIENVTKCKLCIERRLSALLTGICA
T8 sequence (P0C264 whole entry): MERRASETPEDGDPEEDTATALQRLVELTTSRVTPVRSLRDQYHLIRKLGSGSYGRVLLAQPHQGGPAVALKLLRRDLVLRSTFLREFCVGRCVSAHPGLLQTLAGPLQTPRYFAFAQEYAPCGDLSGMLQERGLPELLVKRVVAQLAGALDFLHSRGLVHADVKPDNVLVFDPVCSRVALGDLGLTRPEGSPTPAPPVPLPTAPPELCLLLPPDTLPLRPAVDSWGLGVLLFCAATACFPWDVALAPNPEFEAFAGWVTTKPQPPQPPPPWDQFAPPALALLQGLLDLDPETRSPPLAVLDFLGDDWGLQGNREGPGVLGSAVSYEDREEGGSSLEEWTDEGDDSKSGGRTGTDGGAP
T4 sequence (O43283 whole entry): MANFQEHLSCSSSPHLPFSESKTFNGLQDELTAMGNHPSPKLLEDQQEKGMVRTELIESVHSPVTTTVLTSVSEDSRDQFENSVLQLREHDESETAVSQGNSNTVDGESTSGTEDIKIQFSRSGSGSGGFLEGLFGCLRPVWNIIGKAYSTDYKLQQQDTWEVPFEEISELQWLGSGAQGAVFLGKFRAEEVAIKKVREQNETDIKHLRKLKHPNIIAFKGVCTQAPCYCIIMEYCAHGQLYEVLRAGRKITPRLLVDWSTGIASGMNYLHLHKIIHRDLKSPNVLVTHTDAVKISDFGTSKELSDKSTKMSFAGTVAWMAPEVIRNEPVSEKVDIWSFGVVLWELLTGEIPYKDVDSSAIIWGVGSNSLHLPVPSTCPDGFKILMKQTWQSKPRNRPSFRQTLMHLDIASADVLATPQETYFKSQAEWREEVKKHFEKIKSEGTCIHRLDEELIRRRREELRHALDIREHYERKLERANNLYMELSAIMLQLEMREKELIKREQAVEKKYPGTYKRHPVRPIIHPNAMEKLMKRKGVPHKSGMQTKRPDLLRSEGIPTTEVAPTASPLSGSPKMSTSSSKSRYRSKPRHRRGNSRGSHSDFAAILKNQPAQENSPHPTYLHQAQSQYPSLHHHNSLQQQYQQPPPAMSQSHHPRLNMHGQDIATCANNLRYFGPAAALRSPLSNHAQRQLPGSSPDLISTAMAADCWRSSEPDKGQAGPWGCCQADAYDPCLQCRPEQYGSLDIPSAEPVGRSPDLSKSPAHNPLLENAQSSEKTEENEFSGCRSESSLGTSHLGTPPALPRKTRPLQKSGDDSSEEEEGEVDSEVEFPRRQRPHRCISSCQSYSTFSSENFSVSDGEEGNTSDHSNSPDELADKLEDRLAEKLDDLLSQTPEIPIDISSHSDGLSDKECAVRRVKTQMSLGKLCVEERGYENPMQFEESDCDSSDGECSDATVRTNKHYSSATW
EPHA3, sequence (P29320 whole entry): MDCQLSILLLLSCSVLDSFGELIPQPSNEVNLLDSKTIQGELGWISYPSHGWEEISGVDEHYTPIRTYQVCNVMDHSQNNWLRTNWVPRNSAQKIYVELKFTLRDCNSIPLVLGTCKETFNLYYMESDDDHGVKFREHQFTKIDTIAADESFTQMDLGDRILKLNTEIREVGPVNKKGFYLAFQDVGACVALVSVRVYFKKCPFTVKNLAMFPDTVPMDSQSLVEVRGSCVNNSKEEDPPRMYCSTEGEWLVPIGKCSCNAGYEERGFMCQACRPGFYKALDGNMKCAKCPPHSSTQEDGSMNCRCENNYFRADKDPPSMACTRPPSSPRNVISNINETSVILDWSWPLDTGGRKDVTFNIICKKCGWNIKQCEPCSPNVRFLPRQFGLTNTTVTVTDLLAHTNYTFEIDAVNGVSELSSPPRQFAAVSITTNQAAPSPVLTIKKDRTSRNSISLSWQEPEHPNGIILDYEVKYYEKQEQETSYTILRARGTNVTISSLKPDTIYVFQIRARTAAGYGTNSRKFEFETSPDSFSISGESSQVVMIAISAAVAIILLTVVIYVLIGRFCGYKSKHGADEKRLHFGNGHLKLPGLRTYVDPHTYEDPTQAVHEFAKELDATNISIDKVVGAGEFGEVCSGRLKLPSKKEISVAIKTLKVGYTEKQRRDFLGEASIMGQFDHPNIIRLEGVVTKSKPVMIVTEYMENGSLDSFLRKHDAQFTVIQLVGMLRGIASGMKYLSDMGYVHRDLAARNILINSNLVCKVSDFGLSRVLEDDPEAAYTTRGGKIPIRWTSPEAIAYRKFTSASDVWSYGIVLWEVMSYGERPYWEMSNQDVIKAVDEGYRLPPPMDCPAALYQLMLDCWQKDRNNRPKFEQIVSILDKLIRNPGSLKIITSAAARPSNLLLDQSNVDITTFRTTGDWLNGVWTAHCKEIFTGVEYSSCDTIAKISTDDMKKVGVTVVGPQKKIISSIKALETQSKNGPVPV
LIMK2, sequence (P53671 whole entry): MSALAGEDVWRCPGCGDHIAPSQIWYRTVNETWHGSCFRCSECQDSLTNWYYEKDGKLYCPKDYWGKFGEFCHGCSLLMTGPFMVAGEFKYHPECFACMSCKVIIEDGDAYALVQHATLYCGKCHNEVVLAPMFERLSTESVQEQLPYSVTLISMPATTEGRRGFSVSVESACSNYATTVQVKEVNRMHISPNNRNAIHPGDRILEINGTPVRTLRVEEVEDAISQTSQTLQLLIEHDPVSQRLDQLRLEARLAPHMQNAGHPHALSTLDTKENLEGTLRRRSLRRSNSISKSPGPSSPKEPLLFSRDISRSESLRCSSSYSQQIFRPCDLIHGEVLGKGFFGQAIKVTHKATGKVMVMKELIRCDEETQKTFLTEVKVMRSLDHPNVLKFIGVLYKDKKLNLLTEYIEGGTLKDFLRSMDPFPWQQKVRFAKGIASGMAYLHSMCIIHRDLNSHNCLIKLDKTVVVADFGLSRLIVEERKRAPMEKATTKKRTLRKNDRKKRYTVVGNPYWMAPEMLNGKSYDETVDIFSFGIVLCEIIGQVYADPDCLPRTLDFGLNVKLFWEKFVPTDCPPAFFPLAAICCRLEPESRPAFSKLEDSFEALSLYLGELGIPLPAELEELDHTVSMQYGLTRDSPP
T2 sequence (O00141 whole entry): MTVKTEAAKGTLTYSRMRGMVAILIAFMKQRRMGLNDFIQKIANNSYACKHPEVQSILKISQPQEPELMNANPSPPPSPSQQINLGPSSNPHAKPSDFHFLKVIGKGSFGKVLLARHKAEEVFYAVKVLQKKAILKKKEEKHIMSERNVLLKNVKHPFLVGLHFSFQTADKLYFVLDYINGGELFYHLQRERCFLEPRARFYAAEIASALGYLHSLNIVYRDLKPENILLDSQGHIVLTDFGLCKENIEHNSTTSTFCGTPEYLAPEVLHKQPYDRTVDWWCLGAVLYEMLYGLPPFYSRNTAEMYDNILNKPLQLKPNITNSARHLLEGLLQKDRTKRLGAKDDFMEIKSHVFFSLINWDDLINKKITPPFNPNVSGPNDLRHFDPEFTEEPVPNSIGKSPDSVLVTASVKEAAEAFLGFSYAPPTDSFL

Turning to `c1ccc2c(c1)Sc1ccccc1N2CCN1CCOCC1` [J54], the remaining binding in test [1] amounted to 85%; in [2], 94%; in test [3], 99%; in test [4], 100%; in [5], 94%; in test [6], 93%. Moreover, the remaining binding in test [7] worked out at 100%; in test [8], 92%; in test [9], 91%; in test [10] it was 100%; in test [11], 100%; in test [12], 99%. The remaining binding stood at 99% in [13]; 100% in test [14]; 100% in test [15]; 97% in test [16]; 94% in test [17]; 100% in test [18]. Besides, the remaining binding in test [19] was 59%.
